Reference: patent US20050241012A1, “Multigene profiling in the kidney to tailor drug therapy” (priority 2003, published 2005)
“Also recorded” adds a separate entry of the source. Where a name gives a salt, the structure may show the parent alone. Blank lines part the entries; values can stand above or below the molecule they belong to.

How the values were obtained:
renal slices = assay: Renal tissue slice uptake assay, wild-type and Oat3−/− mice; conditions: for inhibition of taurocholate, estrone sulfate and para-aminohippurate uptake in wild-type renal slices / ES transport in Oat3−/− renal slices in the presence of inhibitor: 1 mM inhibitor; for ES transport in Oat3−/− renal slices in the presence of inhibitor / renal slice uptake in Oat3−/− mice compared with wild-type: 100 nM estrone sulfate; for renal slice uptake in Oat3−/− mice compared with wild-type: 1 h, taurocholate or para-aminohippurate
Procedure: (§1) Data were calculated as tissue to medium T/M ratios and are presented as mean values ±S. E. (3 slices, treatment).
(§2) Renal and hepatic tissue slice preparation and uptake assays were performed according to standard protocols. Four- to 6-month-old mice were euthanized by CO2 inhalation, and the liver and kidneys were immediately placed into freshly oxygenated ice-cold saline. Tissue slices (˜0.5 mm; ˜5-10 mg, wet weight) were cut with a Stadie-Riggs microtome and maintained in ice-cold modified Cross and Taggart saline (in mM: 95 NaCl, 80 mannitol, 5 KCl, 0.74 CaCl2, and 9.5 Na2PO4, pH 7.4). […] Conditions for the PAH experiments were optimized for Oat1 by the addition of 10 μM glutarate to the uptake buffer. After incubation the slices were removed from the uptake medium, blotted, weighed, dissolved in 1 ml of 1M NaOH, neutralized with 1 ml of 1M HCl, and assayed by liquid scintillation spectroscopy. Duplicate medium samples (50 μl) were also assayed, and data are presented as tissue to medium (T/M) ratios (i.e. dpm/mg of tissue divided by dpm/μl of medium).
Statistics. The renal slice data were compared using unpaired Student's t-test. Differences in mean values between the control and inhibited conditions were considered significant when p≦0.05.

choroid plexus = assay: Accumulation in isolated choroid plexus, confocal fluorescence microscopy, wild-type and Oat3−/− mice; conditions: for reduction of cellular accumulation (cellular fluorescence) in CP from Oat3−/− mice: both, mouse, 45 min, 1 μM, pH 7.4
Source text: The CP is composed of capillary projections surrounded by a single layer of cells that protrude into the cerebrospinal fluid-filled ventricles of the brain. The orientation is such that the CSF bathes the apical membrane of the cell and the basal membrane is toward the underlying fenestrated capillary. (A and C) Transmitted light images of wild-type and Oat3^−/− CP, respectively, showing the tissue structure. (B and D) Corresponding fluorescence micrographs of the CP shown in (A) and (C). Confocal images were acquired 45 min after exposure to 1 μM FL in the aCSF medium. […] The positions of representative cells and capillaries (CUD) are indicated by arrows. A 20-μm bar is shown.
Fluorescence levels in cells and vessels of CP from 4 wild-type and 4 Out3^−/− mice were measured (n=5-10 adjacent cellular and capillary areas/CP). […] Data are given as mean ±S.E. for each animal.
Choroid plexus isolation. Adult male and female wild-type and Oat3^−/− mice were euthanized with CO2.
Confocal Fluorescence Microscopy. CP were imaged as using an inverted Zeiss model 510 laser scanning confocal microscope fitted with a 40μ water immersion objective (numeric aperture, 1.2). Samples were illuminated with the 488-nm line of an argon laser; a 510-nm dichroic filter was in the light path, and a long pass emission filter (515 nm) was positioned in front of the detector. […] For each CP, 5-10 adjacent cellular and capillary areas were selected. After background subtraction, the average pixel intensity for each area was calculated and the values reported graphically for each CP are the means ±S.E. for all selected areas (n˜5-10). Values reported in the text are mean ±S.E. of the individual mean values for each CP as determined above (n˜4-6 animals/group).

hepatic slices = assay: Hepatic tissue slice uptake assay, wild-type and Oat3−/− mice; conditions: 1 h
Procedure: as §1, §2

mouse Oat3 = target: T1, mouse Oat3 (Mus musculus, UniProt O88909); conditions: 90 nM [3H]estrone sulfate
T1 sequence (O88909 1-537): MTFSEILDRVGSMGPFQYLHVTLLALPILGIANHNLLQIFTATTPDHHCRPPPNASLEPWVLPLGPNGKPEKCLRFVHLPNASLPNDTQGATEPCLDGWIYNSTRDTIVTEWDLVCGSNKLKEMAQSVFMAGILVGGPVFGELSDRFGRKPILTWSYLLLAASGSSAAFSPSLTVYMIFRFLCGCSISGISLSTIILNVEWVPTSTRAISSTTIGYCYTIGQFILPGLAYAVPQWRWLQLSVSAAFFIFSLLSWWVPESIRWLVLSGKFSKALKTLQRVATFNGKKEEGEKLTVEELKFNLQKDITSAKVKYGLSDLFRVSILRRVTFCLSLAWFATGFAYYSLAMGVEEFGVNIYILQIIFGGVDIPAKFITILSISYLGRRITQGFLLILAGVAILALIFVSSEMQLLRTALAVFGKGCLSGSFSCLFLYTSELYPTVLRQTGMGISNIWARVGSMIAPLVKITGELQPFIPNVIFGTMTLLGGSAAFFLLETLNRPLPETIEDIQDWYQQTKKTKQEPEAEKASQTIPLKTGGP
Procedure: FIG. 13 oocytes three days after injection with either mouse Oat1 or mouse Oat3 cRNA. Oocytes were randomly sorted into test groups and 1 h uptake determined.
Transport Assays-Xenopus oocyte isolation procedures and uptake assay. Ovaries were removed from tricaine methanesulfonate anesthetized adult female Xenopus laevis and follicle-free stage V and stage VI oocytes were isolated by treatment with collagenase A. After an overnight recovery period in Barth's buffer at 18° C., oocytes were microinjected with 20 ng of capped cRNA synthesized from linearized cDNA (mMessage mMachine in vitro transcription kit, Ambion, Inc., Austin, Tex.). […] Oocyte radioactivity was measured in disintegrations/min (dpm) in a Packard 1600TR liquid scintillation counter with external quench correction.

SMILES: O=C1OC(c2ccc(O)c(S(=O)(=O)O)c2)(c2ccc(O)c(S(=O)(=O)O)c2)c2c(Br)c(Br)c(Br)c(Br)c21 [BSP, bromo-sulfophthalein]
- inhibition of taurocholate, estrone sulfate and para-aminohippurate uptake in wild-type renal slices (renal slices): sensitive to inhibition
- ES transport in Oat3−/− renal slices in the presence of inhibitor (renal slices): additional drop

- reduction of cellular accumulation (cellular fluorescence) in CP from Oat3−/− mice (choroid plexus; C57BL/6J): ~75%
- reduction of cellular accumulation (cellular fluorescence) in CP from Oat3−/− mice (choroid plexus): about 75%
SMILES: O=C1OC2(c3ccc(O)cc3Oc3cc(O)ccc32)c2ccccc21 [FL, fluorescein]

SMILES: Nc1ccc(C(=O)NCC(=O)O)cc1 [PAH, para-aminohippurate]
- hepatic slice uptake (hepatic slices): complete lack
- renal slice uptake in Oat3−/− mice compared with wild-type (renal slices; 10 μM TEA): significant (p<0.001) decrease; also recorded: significantly reduced
- mediated uptake in Oat3-expressing oocytes (mouse Oat3; 1 h uptake, 10 μM [3H]PAH, 500 nM [3H]taurocholate): observed

SMILES: C=C[C@H]1C[N@@]2CC[C@H]1C[C@H]2[C@H](O)c1ccnc2ccc(OC)cc12 [Quinine sulfate, quinine sulfate]
- inhibition of renal uptake of [14C]TEA (renal slices; 200 μM quinine sulfate, 10 μM TEA): sensitive

SMILES: CC[N+](CC)(CC)CC [TEA, tetraethylammonium]
- renal slice uptake in Oat3−/− mice compared with wild-type (renal slices; 10 μM TEA): unaltered; also recorded: unaffected

- inhibition of Oat3-mediated ES transport in oocytes (mouse Oat3; 1 mM probenecid): completely blocked
SMILES: CCCN(CCC)S(=O)(=O)c1ccc(C(=O)O)cc1 [probenecid]
- inhibition of taurocholate, estrone sulfate and para-aminohippurate uptake in wild-type renal slices (renal slices): sensitive to inhibition
- ES transport in Oat3−/− renal slices in the presence of inhibitor (renal slices): additional drop
- inhibition of residual FL uptake in CP from Oat3 knockout animals (choroid plexus): probenecid-sensitive
